Non-standard residues stand in square brackets, D forms with d. Residues, ends and D or L forms follow the SMILES beside them. *: point of attachment. dPhe(4-Cl) = N[C@H](Cc1ccc(Cl)cc1)C(=O)O; d1Nal = N[C@H](Cc1cccc2ccccc12)C(=O)O; Lys(iPr) = CC(C)NCCCC[C@H](N)C(=O)O; NMeY = CN[C@@H](Cc1ccc(O)cc1)C(=O)O; NMeF = CN[C@@H](Cc1ccccc1)C(=O)O; d3Pal = N[C@H](Cc1cccnc1)C(=O)O; Cha = N[C@@H](CC1CCCCC1)C(=O)O; d2Thi = N[C@H](Cc1cccs1)C(=O)O; NMeL = CN[C@@H](CC(C)C)C(=O)O; pGlu = O=C1CC[C@@H](C(=O)O)N1; Nicotinoyl = O=C(c1cccnc1)*; NMeS = CN[C@@H](CO)C(=O)O
Target: T1, LHRH receptors (Rattus norvegicus, UniProt P30969)
T1 sequence (P30969 1-327): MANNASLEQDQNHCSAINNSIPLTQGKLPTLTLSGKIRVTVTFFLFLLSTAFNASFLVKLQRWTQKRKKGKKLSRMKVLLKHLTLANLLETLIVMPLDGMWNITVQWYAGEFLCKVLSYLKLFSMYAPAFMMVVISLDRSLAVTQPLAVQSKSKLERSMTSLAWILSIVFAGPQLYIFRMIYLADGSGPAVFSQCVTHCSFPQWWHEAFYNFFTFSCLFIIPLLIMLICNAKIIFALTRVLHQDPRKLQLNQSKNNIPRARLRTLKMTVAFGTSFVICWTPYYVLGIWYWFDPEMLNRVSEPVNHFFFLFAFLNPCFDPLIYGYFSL
Assay: Radioligand receptor binding assay, rat pituitary membranes
Conditions: radioiodinated [D-Leu6-des Gly10]-LHRH ethyl amide 50 pM, 2 hours at 4° C., read-out: Receptor Binding pkI (converted)
Description: The radioligand (50 pM), receptors, and compounds to be tested are coincubated for 2 hours at 4° C. Bound ligand is separated from free ligand via centrifugation and aspiration.

Structure (SMILES): CCNC(=O)[C@@H]1CCCN1C(=O)[C@H](CCCN=C(N)N)NC(=O)[C@H](CC(C)C)NC(=O)[C@@H](CC(C)C)NC(=O)[C@H](Cc1ccc(O)cc1)NC(=O)[C@H](CO)N(C)C(=O)[C@H](Cc1c[nH]c2ccccc12)NC(=O)[C@H](Cc1c[nH]cn1)NC(=O)[C@@H]1CCC(=O)N1 [Ex. 1, (pyro)Glu-His-Trp-N-Me-Ser-Tyr-D-Leu-Leu-Arg-Pro-NHEt] ([pGlu]HW[NMeS]Y[dL]LRP-NHEt)
- Ki: 1.17 nM

Structure (SMILES): CCNC(=O)[C@@H]1CCCN1C(=O)[C@H](CCCN=C(N)N)NC(=O)[C@H](CC(C)C)NC(=O)[C@@H](Cc1c[nH]c2ccccc12)NC(=O)[C@H](Cc1ccc(O)cc1)NC(=O)[C@H](CO)NC(=O)[C@H](Cc1c[nH]c2ccccc12)NC(=O)[C@H](Cc1ccccc1)N(C)C(=O)[C@@H]1CCC(=O)N1 [Ex. 19, (pyro)Glu-N-Me-Phe-Trp-Ser-Tyr-D-Trp-Leu-Arg-ProNHEt] ([pGlu][NMeF]WSY[dW]LRP-NHEt)
- Ki: 0.038 nM

Structure (SMILES): CCNC(=O)[C@@H]1CCCN1C(=O)[C@H](CCCN=C(N)N)N(C)C(=O)[C@H](CC(C)C)NC(=O)[C@@H](Cc1c[nH]c2ccccc12)NC(=O)[C@H](Cc1ccc(O)cc1)NC(=O)[C@H](CO)NC(=O)[C@H](Cc1c[nH]c2ccccc12)NC(=O)[C@H](Cc1cnc[nH]1)NC(=O)[C@@H]1CCC(=O)N1 [Ex. 23, (pyro)Glu-His-Trp-Ser-Tyr-D-Trp-Leu-N-Me-Arg-ProNHEt]
- Ki: 0.0562 nM

Structure (SMILES): CC(=O)N[C@H](Cc1ccc(Cl)cc1)C(=O)N[C@H](Cc1ccc(Cl)cc1)C(=O)N[C@H](Cc1cccs1)C(=O)N[C@@H](CO)C(=O)N(C)[C@@H](Cc1ccc(O)cc1)C(=O)N[C@H](CCCCN)C(=O)N[C@@H](CC(C)C)C(=O)N[C@@H](CCCNC(=N)N)C(=O)N1CCC[C@H]1C(=O)N[C@H](C)C(N)=O [Ex. 39, N-Ac-D-4-Cl-Phe-D-4-Cl-Phe-D-2-Thia-Ser-N-Me-Tyr-D-Lys-Leu-Arg-Pro-D-AlaNH2] (Ac-[dPhe(4-Cl)][dPhe(4-Cl)][d2Thi]S[NMeY][dK]LRP[dA]-NH2)
- Ki: 0.0355 nM

Structure (SMILES): CC(=O)NCC(=O)N[C@H](Cc1ccc(Cl)cc1)C(=O)N[C@H](Cc1cccnc1)C(=O)N[C@@H](CO)C(=O)N(C)[C@@H](Cc1ccc(O)cc1)C(=O)N[C@H](CCCCNC(=O)c1cccnc1)C(=O)N[C@@H](CC(C)C)C(=O)N[C@@H](CCCCNC(C)C)C(=O)N1CCC[C@H]1C(=O)N[C@H](C)C(N)=O [Ex. 42, N-Ac-Gly-D-4-Cl-Phe-D-3-Pal-Ser-N-Me-Tyr-D-Lys-(N-epsilon-nicotinyl)-Leu-Lys(N-epsilon-isopropyl)-Pro-D-AlaNH2] (Ac-G[dPhe(4-Cl)][d3Pal]S[NMeY][dK](Nicotinoyl)L[Lys(iPr)]P[dA]-NH2)
- Ki: 0.603 nM

Structure (SMILES): CC(=O)N[C@H](Cc1ccc(Cl)cc1)C(=O)N[C@H](Cc1ccc(Cl)cc1)C(=O)N[C@H](Cc1cccs1)C(=O)N[C@@H](CO)C(=O)N(C)[C@@H](Cc1ccc(O)cc1)C(=O)N[C@H](CCCCN)C(=O)N(C)[C@@H](CC(C)C)C(=O)N[C@@H](CCCNC(=N)N)C(=O)N1CCC[C@H]1C(=O)N[C@H](C)C(N)=O [Ex. 45, N-Ac-D-4-Cl-Phe-D-4-Cl-Phe-D-2-Thia-Ser-N-Me-Tyr-D-Lys-N-Me-Leu-Arg-Pro-D-AlaNH4] (Ac-[dPhe(4-Cl)][dPhe(4-Cl)][d2Thi]S[NMeY][dK][NMeL]RP[dA]-NH2)
- Ki: 0.0138 nM

Structure (SMILES): CC(=O)N[C@H](Cc1ccc(Cl)cc1)C(=O)N[C@H](Cc1ccc(Cl)cc1)C(=O)N[C@H](Cc1cccc2ccccc12)C(=O)N[C@@H](CO)C(=O)N(C)[C@@H](Cc1ccc(O)cc1)C(=O)N[C@H](CCCCN)C(=O)N[C@@H](CC1CCCCC1)C(=O)N[C@@H](CCCNC(=N)N)C(=O)N1CCC[C@H]1C(=O)N[C@H](C)C(N)=O [Ex. 47, N-Ac-D-4-Cl-Phe-D-4-Cl-Phe-D-1-Nal-Ser-N-Me-Tyr-D-Lys-Cha-Arg-Pro-D-AlaNH2] (Ac-[dPhe(4-Cl)][dPhe(4-Cl)][d1Nal]S[NMeY][dK][Cha]RP[dA]-NH2)
- Ki: 0.038 nM

Reference: patent publication US5110904A (Abbott Laboratories, priority 1990, dated 1992)
